These results are taken from patent US4442093A, “Method for administering 24,25-dihydroxycholecalciferol to persons suffering from hypercalcemia” (Kureha Kagaku Kogyo Kabushiki Kaisha, priority 1981, dated 1984).

Assay [1] concerns ulcer found on the duodenum. Nature of the assay: Healing of acetic acid induced duodenal ulcer (Example 10). Format: in vivo, male rats. The settings on record: 20 µg/kg/day oral, 10 days. The protocol: Fourty five male rats of body weight of 240 to 260 g were equally divided into three groups, each consisting of 15 animals, and they were subjected to an operation following the method of Okabe et al. (refer to Amer. J. Dig. Dia., 16, 277, 1971), in which under anesthesia by ether, a circular frame made of a metal was placed on the serosa 5 to 7 mm from the pylorus and 0.06 ml of gracial acetic acid was poured onto the round part within the frame and after 30 sec, the acetic liquid was removed with the frame.
The thus operated rats of the first group were administered orally with a suspension of […] of 24R,25-(OH)2 -D3 in Panacete®810 containing 0.2% by weight of ethanol once a day for continuous 10 days from the third day of the operation at a daily dose rate of 20 micrograms of 24R,25-(OH)2 -D3 /kg. To the thus operated rats of the second group (control), only Panacete®810 was orally administered at a daily dose rate of 2 ml/kg for continuous 10 days.
The thus operated rats of the third group were used in the comparative test. Namely, they were treated in the same manner as those of the first group except for administration of gefarnate (3,7-dimethyl-2,6-octadienyl-5,9,13-trimethyl-4,8,12-tetradecatrienoate) at a daily dose rate of 20 microgram/kg body weight in stead of 24R,25-(OH)2 -D3 in the first group.
After finishing the final administration, all the rats were sacrificed by ether and their duodenum was taken out for autopsy. The length and the width of the ulcer found on the duodenum were measured, and their product with a unit of mm^2 was taken and named as the ulcer coefficient. The rate of healing of the ulcer was calculated by the following formula: [formula] wherein C is the ulcer coefficient of control and U is the ulcer coefficient of the group to which the present compound was administered.

The test system of the next assay is gastric ulcer. Nature of the assay: Prevention of gastric ulcer due to pyloric ligation (Example 9). Format: in vivo, male Wistar rats. The settings on record: 200 µg/kg i.p. once after pyloric ligation, 15 h. As to the method:
Twenty male Wistar rats of average body weight of 250 g were divided equally into two groups, and used in the following test:
After 36 hour fasting, all the rats were subjected to pyloric ligation, and the rats of the first group were administered with 2 ml/kg of Panacete®810 (triglyceride ester of C8 and C10 -fatty acid, made by Nippon Oil & Fats Co., Ltd.) containing 0.2% by weight of ethanol intraperitoneally once just after ligation. The rats of the second group were administered with 24R,25-(OH)2 -D3 dissolved in Panacete®810 containing 0.2% by weight of ethanol intraperitoneally at a dose rate of 200 micrograms/kg body weight once just after ligation. After 15 hours of administration, all the rats were subjected to gastrectomy, and the presence or absence of the gastroparietal ulcer was examined on all the resected stomach.
As a result, the occurrence of gastric ulcer was found on 9 rats of 10 rats of the first group, and on 2 rats of 10 rats of the second group.
In a similar test, 24S,25-(OH)2 -D3 was used instead of 24R,25-(OH)2 -D3 to examine its effect in preventing the occurrence of gastric ulcer due to pyloric ligation. As a result, the occurrence of gastric ulcer was recognized on 3 rats of 10 rats of the group similarly treated to those of the second group.

Assay [2] deals with mononucleates (lymphocytes) of peripheral blood. Nature of the assay: Blastoid-transformation of rat lymphocytes in peripheral blood, 3H-TdR uptake (Example 13). In kind it is in vivo. As to the method: The effect of the present compound on the blastoid-transformation of rat lymphocytes in the peripheral blood was examined as follows: After mixing each of the blood specimens taken from the respective rats of the four groups in Example 11 added with heparin and RPMI-1640 culture medium at a weight ratio of 1:1, the mixture was added to Ficoll-Paque solution, and the thus obtained mixture was subjected to centrifugal separation at 400 G for 20 min to collect the layer of mononucleates. After washing the thus collected mononucleates three times with PRMI-1640 culture medium (in a liquid state), the washed mononucleates were suspended into RPMI-1640 culture medium added with 10% by weight of calf serum to be in concentration of 1.5×10^6 cells/ml. Hundred microliters of the thus prepared suspension was placed in the pit of Pharcon microtest II plate, and after adding a substance promoting cell division (hereinafter referred to as mitogen) and RPMI-1640 culture medium added with 10% by weight of calf serum to the thus placed suspension to make the total volume 200 microliters, the thus prepared mixture was incubated for 72 hours under a gas (a 95:5 by volume mixture of air and carbon dioxide saturated with moisture) flow at 37° C. ^3 H-methylthymidine of specific activity of 5 Ci/mmol was added to the mixture during incubation at the time 24 hours before the incubation was over in an amount corresponding to 0.5 micro Ci. After the incubation was over, the cells in the culture were collected by filtering the cultured mixture, and the amount of radioactive isotope uptaken into the cells was determined by a liquid scintillation counter. For reference, the mitogen used in the present test is concanavalin A for T-cell or lipopolysaccharide for B-cell.

The test system of a further assay is thymus. Nature of the assay: Weight ratio of thymus to body and number of thymocytes in rats given puromycin aminonucleoside (Example 11). In kind it is in vivo, male JCL-Wistar rats. The note with it: 100 µg/kg/day oral 12 days with puromycin aminonucleoside 15 mg/kg s.c. The protocol:
Thirty-two male JCL-Wistar rats in tenth week after birth were used in the present test while keeping them in a room at 21±1° C. and 60±5% RH with solid diet (CE 2) and water taken ad lib.
They were divided equally into 4 groups (one group consisting of 8 animals), their treatments in the test being as follows:
subcutaneous injection of puromycin aminonucleoside as in the second group and oral administration of 24R,25-(OH)2 -D3 dissolved in Panacete 810 once a day at a daily dose rate of 100 micrograms/kg for continuous 12 days.
subcutaneous injection of puromycin aminonucleoside as in the second group and oral administration of 24S,25-(OH)2 -D3 dissolved in Panacete 810 once a day at a daily dose rate of 100 micrograms/kg for continuous 12 days.
After uniformly loosing the thymus in phosphate buffer solution with a forcets and fully pipetting, the mixture was filtered through a stainless steel mesh (Tylar standard #200) and the filtrate containing the thymic cells was stained with Turk's solution. The thus stained specimen was subjected to counting under a microscope.

For another assay, the system named is thymic cells. Nature of the assay: Pattern of the size of thymic cells by FACS (Example 12). Format: in vivo, rats. The note with it: 100 µg/kg/day oral 12 days with puromycin aminonucleoside. As to the method:
After feeding the rats (the same number and the same grouping) of the same strain and treating them in the same manner as in Example 11, their thymus was resected, and an analysis of the pattern of the size of the thymic cells was carried out while using Fluorescence Activated Cell Sorter (FACS II, made by Becton-Dickinson Co.) as follows:
After loosing the resected thymus in phosphate buffer solution sufficiently with a pincette, pipetting well and passing the mixture through a standard #200 Tyler stainless steel mesh, the filtrate was treated with an aqueous 0.83% by weight ammonium chloride buffer solution containing tris-hydroxyaminomethane to carry out hemolysis of the erythrocytes intermingled therein followed by three times of washing with the phosphate buffer solution. After adjusting the concentration of the thus obtained thymic cell to 5×10^6 cells/ml with the addition of the phosphate buffer solution, the abovementioned analysis was carried out. The ratio of the number of living thymic cells to the total number of the thus obtained thymic cells was confirmed to be higher than 95% after staining with trypan blue and counting under microscope.
A general note: A flow cytometer gives signals particle by particle.

Assay [3] concerns calcium level in serum. Nature of the assay: Prevention of hypercalcemia in rats administered with 1-α-(OH)-D3 (Example 4). Format: in vivo, male Wistar rats. The settings on record: 1-α-(OH)-D3 10 µg/kg i.p. alone. An excerpt:
In the present example, it is shown that 24R,25-(OH)2 -D3 has a function of preventing the occurrence of hypercalcemia on rats administered with 1-α-hydroxycholecalciferol (hereinafter referred to as 1-α-(OH)-D3).
Six subgroups of male Wistar rats of 130±30 g of body weight were subjected to the test while dividing the rats into 3 groups, each group consisting of 2 subgroups and each subgroup consisting of 5 animals. To the rats of the first group, after fasting for a night, an ethanolic solution of 1-α-(OH)-D3 was intraperitoneally administered at a dose rate of 10 micrograms of 1-α-(OH)-D3 /kg body weight. To the rats of the second group, a solution of 24R,25-(OH)2 -D3 in the triglyceride ester used in Example 1 was orally administered at a dose rate of 100 micrograms/kg body weight simultaneously with the same administration of 1-α-(OH)-D3 as in the rats of the first group.
The third group of the rats was used for control only with the oral administration of the triglyceride ester used in Example 1.

Assay [4] has as its system inorganic phosphate level in serum. The settings on record: after its administration; cited from earlier work.
Assay [5] has as its system calcium level in serum. Nature of the assay: Serum calcium in rats made hypercalcemic with Vitamin D3 (Example 1). Format: in vivo, male Wistar rats. The note with it: for Calcium level in serum: 24R 100 µg/kg oral, calcitonin 4 MRCU/kg s.c. The protocol:
To 16 subgroups of male Wistar rats of body weight of 150±40 g (one subgroup consisting of 5 rats), a solution of Vitamin D3 dissolved in corn oil at 600 micrograms/ml was orally administered once a day for continuous 4 days at a daily dose rate of 0.5 ml/100 g body weight to prepare the rats artifically suffering from hypercalcemia. After one day's fasting from the final administration of Vitamin D3, the calcium level in the serum of each rat of the first subgroup was on the average 13.5±0.4 mg/dl. The remaining 15 subgroups of the rats were divided into 3 groups each consisting of 5 subgroups and subjected to the following tests.
To the rats of the second group, a solution of porcine calcitonin in a physiological saline solution containing 4% by weight of gelatin was subcutaneously injected at a dose rate of 4 MRCU/kg body weight instead of the solution of 24R,25-(OH)2 -D3 and they were treated as those of the first group.
To the rats of the third group, only the same triglyceride ester as in the first group was orally administered, and they are treated in the same manner as in the first group.
The calcium level of the respective sera of the thus collected blood was determined by OCPC method (Orthocresol Phthalein Complexone method) and shown in Table 1.

The mark [6] stands for this setting: 100 µg/kg/day oral 12 days with puromycin aminonucleoside.

No end group written: not given here.

On to `CC(C)=CCCC(C)=CCCC(C)=CCCC(=O)OCC=C(C)CCC=C(C)C` [gefarnate, 3,7-dimethyl-2,6-octadienyl-5,9,13-trimethyl-4,8,12-tetradecatrienoate, reference compound], for which, in assay [1], the ulcer coefficient is 7.5 mm^2. Further, the “rate of ulcer healing” value in assay [1] (vs control) is 0%.
Regarding `C=C1CC[C@H](O)C/C1=C/C=C1\CCC[C@]2(C)[C@@H]([C@H](C)CC[C@H](O)C(C)(C)O)CC[C@@H]12` [24S,25-(OH)2 -D3], the “occurrence of gastric ulcer” value in the assay with gastric ulcer is recorded as 3 rats of 10 rats. Also, in assay [2] (setting [6]), the “Uptake of 3H-TdR in presence of Concanavalin A” value is 3582 ± 362 cpm and the “Uptake of 3H-TdR in presence of Lipopolysaccharide” value amounted to 3126 ± 351 cpm. Further, the “Number of mononucleate (ratio, first group = 1.00)” value in assay [2] (po, 0.1 mg/kg, 288 h) was 0.58 ± 0.15. In the assay on thymus, the Number of thymocytes result was “(30 ± 4.5) × 10^7”. Besides, the “number ratio of cells a little larger than normal cell to total thymic cells” value in the assay on thymic cells is given as “the same as that of the control group”.
With `C=C1/C(=C\C=C2/CCC[C@]3(C)[C@@H]([C@H](C)CCCC(C)C)CC[C@@H]23)C[C@@H](O)C[C@@H]1O` [1-α-(OH)--D3, 1-α-hydroxycholecalciferol, reference compound], the “Calcium level in serum” value with calcium level in serum [3] (after 10 hours) was 13.4 ± 0.6 mg/dL; in the assay on calcium level in serum [3] (after 18 hours), 14.5 ± 0.5 mg/dL.
In the case of “calcitonin: porcine calcitonin in physiological saline solution containing 4% by weight of gelatin (CSNLSTCVLSAYWRNLNNFHRFSGMGFGPETP; ends and bridges not checked; cysteine pairing not given here; UniProt P01259 1-32, looked up)”, the “duration of strong reduction of serum inorganic phosphate level” value in assay [4] is 2 to 3 h. Also, the “effect on raised serum calcium after 2 hours” value with calcium level in serum [5] (4 MRCU/kg s.c.) is reported as “its effect was not recognized after 2 hours of its administration”. The “Calcium level in serum” value in the assay on calcium level in serum [5] (2 h after administration) was 10.8 ± 0.5 mg/dL; in the assay with calcium level in serum [5] (5 h after administration), 13.0 ± 0.4 mg/dL; with calcium level in serum [5] (8 h after administration), 13.4 ± 0.4 mg/dL; in the assay with calcium level in serum [5] (12 h after administration), 13.9 ± 0.5 mg/dL; with calcium level in serum [5] (24 h after administration) it was 13.4 ± 0.4 mg/dL.
